Data published in the supplement of paper PMC5908809.

What was measured:
[1] = test system: normal NK cells expanded with K562-aAPC; experiment: percent inhibition of viability; higher = more inhibition; settings: 72 h, IL-2 2.5 ng/mL
Protocol: (§1)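 Drug sensitivity and resistance testing on K562-aAPC-expanded normal NK cells: 5 concentrations (10-fold steps over a 10,000-fold range), 72 h at 37 °C, viability by CellTiter-Glo normalised to DMSO and benzethonium chloride controls; DSS from the fitted curve.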

[2] = test system: IMC-1 (IL-2 20 ng/mL); experiment: as above; settings: 72 h
[3] = test system: SNK-6 (IL-2 2.5 ng/mL); experiment: as above; settings: 72 h
[4] = test system: normal primary NK cells, pool 3 (3 donors) (IL-2 2.5 ng/mL); experiment: as above; settings: 72 h
[5] = test system: NKL (IL-2 2.5 ng/mL); experiment: as above; settings: 72 h
[6] = test system: YT (IL-2 2.5 ng/mL); experiment: as above; settings: 72 h
[7] = test system: NK-92 (IL-2 2.5 ng/mL); experiment: as above; settings: 72 h
[8] = test system: normal primary NK cells, pool 2 (3 donors) (IL-2 2.5 ng/mL); experiment: as above; settings: 72 h
[9] = test system: normal primary NK cells, pool 1 (3 donors), resting (IL-2 0 ng/mL); experiment: as above; settings: 72 h
[10] = test system: KAI3 (IL-2 2.5 ng/mL); experiment: as above; settings: 72 h
[11] = test system: KHYG-1 (IL-2 2.5 ng/mL); experiment: as above; settings: 72 h
[12] = test system: normal primary NK cells, pool 1 (3 donors) (IL-2 2.5 ng/mL); experiment: as above; settings: 72 h
[13] = test system: DERL-7 (IL-2 2.5 ng/mL); experiment: as above; settings: 72 h
[14] = test system: NK-YS (IL-2 2.5 ng/mL); experiment: as above; settings: 72 h
[15] = test system: IMC-1 (IL-2 20 ng/mL); experiment: drug sensitivity score (DSS) (DSS units); higher = more sensitive; extreme values may be limits of the assay; settings: 72 h
[16] = test system: SNK-6 (IL-2 2.5 ng/mL); experiment: as above; settings: 72 h
[17] = test system: normal primary NK cells, pool 3 (3 donors) (IL-2 2.5 ng/mL); experiment: as above; settings: 72 h
[18] = test system: NKL (IL-2 2.5 ng/mL); experiment: as above; settings: 72 h
[19] = test system: YT (IL-2 2.5 ng/mL); experiment: as above; settings: 72 h
[20] = test system: NK-92 (IL-2 2.5 ng/mL); experiment: as above; settings: 72 h
[21] = test system: normal primary NK cells, pool 2 (3 donors) (IL-2 2.5 ng/mL); experiment: as above; settings: 72 h
[22] = test system: normal primary NK cells, pool 1 (3 donors), resting (IL-2 0 ng/mL); experiment: as above; settings: 72 h
[23] = test system: KAI3 (IL-2 2.5 ng/mL); experiment: as above; settings: 72 h
[24] = test system: KHYG-1 (IL-2 2.5 ng/mL); experiment: as above; settings: 72 h
[25] = test system: normal primary NK cells, pool 1 (3 donors) (IL-2 2.5 ng/mL); experiment: as above; settings: 72 h
[26] = test system: DERL-7 (IL-2 2.5 ng/mL); experiment: as above; settings: 72 h
[27] = test system: NK-YS (IL-2 2.5 ng/mL); experiment: as above; settings: 72 h
[28] = test system: normal NK cells expanded with K562-aAPC; experiment: as above; settings: 72 h; IL-2 2.5 ng/mL
Protocol: as §1

CS(=O)(=O)N1CCc2c(-c3cnc(N)nc3)nc(N3CCOCC3)nc21 (max concentration tested 10000 nM)
percent inhibition of viability [%]
Settings	1 nM	10 nM	100 nM	1000 nM	10000 nM
[1]	-0.53	-3.07	3.27	24.3	52.9
[2]	-0.46	0.95	2.38	-7.5	-15.8
[3]	-21.9	-10.1	-16.1	5.8	44.2
[4]	-11.3	-9.29	13	19.5	28.9
[5]	14.7	9.02	17.7	40.3	71.3
[6]	2.76	1.12	1.06	26.2	75.4
[7]	-5.62	-3.32	15.7	40.8	55.8
[8]	-2.54	-3.72	-0.24	21.6	34.8
[9]	-25.7	-37.9	3.84	-1.15	14.8
[10]	7.02	7.63	15.1	29.3	51.8
[11]	4.51	-0.98	-0.03	9.84	39.7
[12]	-5.22	-10.5	16.6	24.4	35.2
[13]	-3.09	-4.08	3.85	42.4	85.6
[14]	4.61	0.28	4.3	32.1	62.7

Settings	drug sensitivity score
[15]	0
[16]	3.23
[17]	4.2
[18]	10.4
[19]	7.87
[20]	9.23
[21]	4.2
[22]	0.17
[23]	7.4
[24]	3.5
[25]	5.87
[26]	9.77
[27]	7.16
[28]	5.59

Oc1c2ccccc2c2c3c(cccc13)N=N2 (max concentration tested 100000 nM)
percent inhibition of viability [%]
Settings	10 nM	100 nM	1000 nM	10000 nM	100000 nM
[1]	-5.86	-5.73	-0.03	16.2	46.2
[2]	-9.76	-5.66	-7.38	9.45	15.4
[3]	-6.71	-15.7	-11.4	25.4	66.8
[4]	-1.96	3	10.6	5.71	43.7
[5]	-5.72	1.11	17.1	43.4	71.7
[6]	-6.35	-2.65	-2.78	17.4	42.7
[7]	5.13	5.87	15.3	43.2	71.4
[8]	-8.33	-0.93	6.2	28.3	40.2
[9]	10.6	13.4	3.37	16	14.5
[10]	-1.06	-0.37	-1.44	36	77.2
[11]	-9.58	-4.25	-1.77	41.2	79.2
[12]	1.28	6.88	11.3	22.6	57.5
[13]	0.02	10.7	21.6	53.3	72.7
[14]	-9.38	-3.05	-7.51	20.3	61

Settings	drug sensitivity score
[15]	0.95
[16]	7.17
[17]	3.2
[18]	10.3
[19]	4.53
[20]	10.2
[21]	5.61
[22]	0
[23]	8.9
[24]	9.5
[25]	5.75
[26]	12.8
[27]	6.25
[28]	4.7

CCCCC/C=C/C=C1/C(=O)C=C[C@@H]1C/C=C\CCCC(=O)O [15D-PGJ2] (max concentration tested 3000 nM)
percent inhibition of viability [%]
Settings	0.3 nM	3 nM	30 nM	300 nM	3000 nM
[1]	-3.92	-2.07	0.09	7.83	19.8
[2]	-2.09	2.04	0.05	5.09	1.41
[3]	1.92	3.18	18.9	6.05	19.9
[4]	-15.9	-3.38	4.01	-2.88	14.8
[5]	-9.35	-3.21	-6.49	3.89	-15.1
[6]	-2.94	-0.98	-4.25	-6.3	12.1
[7]	-11	-12	-5.46	5.82	13.3
[8]	-13.3	-1.17	5.71	0.83	16.9
[9]	6.38	-19	3.5	-8.64	11.8
[10]	-4.96	-2.91	-5.31	-1.28	16.5
[11]	-5.02	1.78	4.62	3.59	4.59
[12]	8.24	-4.33	-3.39	-9.81	14
[13]	3.37	-0.28	-1.84	-0.56	14.4
[14]	2.56	5.36	6.24	9.44	10.4

Settings	drug sensitivity score
[15]	0
[16]	1.74
[17]	0.13
[18]	0
[19]	0.01
[20]	0.46
[21]	0.45
[22]	0
[23]	0.28
[24]	0
[25]	0.07
[26]	0.17
[27]	0
[28]	1.44

COc1ccc(S(=O)(=O)Nc2cccnc2Nc2ccc(O)cc2)cc1 [ABT-751] (max concentration tested 10000 nM)
percent inhibition of viability [%]
Settings	1 nM	10 nM	100 nM	1000 nM	10000 nM
[1]	2.34	4.2	3.33	57.7	58.5
[2]	1.24	2.22	4.35	99.6	99.6
[3]	3.22	10.5	50.7	81.7	89.2
[4]	4.41	1.96	4.78	13.2	16.7
[5]	-0.28	-14.8	-13.9	90.3	83.4
[6]	3.24	3.8	13.6	100	96.2
[7]	4.6	3.35	37.3	92.8	91.3
[8]	0.28	3.85	0.94	8.44	14.7
[9]	1.2	-5.61	-12	16.9	49.5
[10]	7.18	10.3	18.4	62.9	74.9
[11]	-0.83	2.36	14.9	104	104
[12]	-9.52	-12.6	-7.29	0.64	11.6
[13]	5.8	5.64	3.05	99.1	99
[14]	-0.79	0.15	23.9	70.5	71.2

Settings	drug sensitivity score
[15]	18.5
[16]	21.9
[17]	1.19
[18]	15.4
[19]	20.3
[20]	21.4
[21]	0.52
[22]	5.02
[23]	13.8
[24]	20.6
[25]	0.04
[26]	18.2
[27]	16.3
[28]	11.1

O=C(NC1CCNCC1)c1n[nH]cc1NC(=O)c1c(Cl)cccc1Cl [AT7519] (max concentration tested 10000 nM)
percent inhibition of viability [%]
Settings	1 nM	10 nM	100 nM	1000 nM	10000 nM
[1]	-3.7	0.1	-4.47	99.1	100
[2]	5.46	1.26	-0.14	96.8	96.4
[3]	6.43	-7.68	0.7	50.8	48.4
[4]	-13.9	-11.2	-5.85	94.7	98.8
[5]	1.32	5.88	13.8	102	97.5
[6]	0.46	-3.64	6.82	79.9	97
[7]	-10.5	-1.16	-2.58	32.2	90.7
[8]	-5.51	-3.1	0.18	95.2	95.8
[9]	-42.2	-37.4	-20.6	90.1	89.6
[10]	1.05	-1.69	4.7	86.2	94
[11]	-2.18	-4.7	1.67	61.9	96.3
[12]	-13.5	-8.03	6.78	96.9	97.9
[13]	3.68	-3.37	-6.6	99.2	100
[14]	-2.23	-4.04	9.45	96.6	93.7

Settings	drug sensitivity score
[15]	17.4
[16]	9.33
[17]	16.8
[18]	20.3
[19]	15.6
[20]	9.5
[21]	17.2
[22]	15.1
[23]	16.3
[24]	12.7
[25]	18.6
[26]	17.3
[27]	18.9
[28]	17.5
